Experimental data as given in the NIST ThermoML archive (doi:10.1016/j.jct.2018.08.034).
“And” between values parts separate entries of the source, which are not always exact repeats. Equal values may be shown once.

How the values were obtained:
[1] = Crystal
[2] = Molar enthalpy of transition or fusion; details: Crystal; DSC

c1ccc2cc3sccc3cc2c1 [naphtho[2,3-b]thiophene]
Details	Normal melting temperature [°C]
[1], DTA	188.6

Details	Molar enthalpy of transition or fusion [kcal/mol]
[2]	5.09

c1ccc2cc3ccccc3cc2c1 [anthracene]
[1]
Details	vapor or sublimation pressure
343.29 K	0.000192 kPa
343.3 K	0.000182 kPa
343.31 K	0.000197 kPa
345.76 K	0.000235 kPa and 0.00024 kPa
345.79 K	0.000247 kPa
348.21 K	0.000317 kPa and 0.000305 kPa
348.27 K	0.000297 kPa
350.75 K	0.000392 kPa
350.76 K	0.000401 kPa
350.79 K	0.000384 kPa
353.04 K	0.000479 kPa and 0.000485 kPa
353.19 K	0.000498 kPa
355.68 K	0.00063 kPa
355.73 K	0.000626 kPa
355.74 K	0.000623 kPa
358.14 K	0.000799 kPa
358.15 K	0.000784 kPa
358.18 K	0.000798 kPa
360.63 K	0.001 kPa
360.66 K	0.000992 kPa
360.68 K	0.000998 kPa
362.95 K	0.00123 kPa and 0.001232 kPa
363.13 K	0.001244 kPa
365.54 K	0.00155 kPa
365.55 K	0.001551 kPa
365.56 K	0.001562 kPa
367.97 K	0.001927 kPa and 0.001947 kPa
367.98 K	0.001941 kPa
370.43 K	0.002398 kPa
370.44 K	0.002418 kPa and 0.002409 kPa
372.85 K	0.00298 kPa
372.89 K	0.002973 kPa and 0.002978 kPa
